Data published in paper PMC8449129, “Single tracer-based protocol for broad-spectrum kinase profiling in live cells with NanoBRET” (STAR Protocols, 2021).

Columns and labels:
Experiment in all cases: cell-based
Design in all cases: NanoBRET live-cell target engagement; % occupancy from displacement of tracer K10 on NanoLuc-kinase fusions, mean n=3
Conditions in all cases: HEK293, read-out: % inhibition
[1] = molecular target: AKT2 (Homo sapiens, UniProt P31751)
Outline: (§1)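 Live-cell NanoBRET target engagement: cells expressing kinase–NanoLuc fusion with tracer treated with compound 2 h at 37 °C, 5% CO2. BRET read from donor (450 nm) and acceptor (610/630 nm) emission with 20 μM extracellular NanoLuc inhibitor; % occupancy calculated relative to tracer+DMSO and zero-BRET controls.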

[2] = molecular target: BRSK2 (Homo sapiens, UniProt Q8IWQ3)
Outline: as §1

[3] = molecular target: CDK15 (Homo sapiens, UniProt Q96Q40)
Outline: as §1

[4] = molecular target: CDK18 (Homo sapiens, UniProt Q07002)
Outline: as §1

[5] = molecular target: CDK3 (Homo sapiens, UniProt Q00526)
Outline: as §1

[6] = molecular target: CDKL5 (Homo sapiens, UniProt O76039)
Outline: as §1

[7] = molecular target: CSNK2A1 (Homo sapiens, UniProt P68400)
Outline: as §1

[8] = molecular target: FGFR3 (Homo sapiens, UniProt P22607)
Outline: as §1

[9] = molecular target: GAK (Homo sapiens, UniProt O14976)
Outline: as §1

[10] = molecular target: HIPK3 (Homo sapiens, UniProt Q9H422)
Outline: as §1

[11] = molecular target: MAPK11 (Homo sapiens, UniProt Q15759)
Outline: as §1

[12] = molecular target: MAST4 (Homo sapiens, UniProt O15021)
Outline: as §1

[13] = molecular target: NEK11 (Homo sapiens, UniProt Q8NG66)
Outline: as §1

[14] = molecular target: NEK9 (Homo sapiens, UniProt Q8TD19)
Outline: as §1

[15] = molecular target: PRKAA1 (Homo sapiens, UniProt Q13131)
Outline: as §1

[16] = molecular target: RPS6KA1 (Homo sapiens, UniProt Q15418)
Outline: as §1

[17] = molecular target: TNK1 (Homo sapiens, UniProt Q13470)
Outline: as §1

[18] = molecular target: TXK (Homo sapiens, UniProt P42681)
Outline: as §1

Chain of TXK (P42681 whole entry): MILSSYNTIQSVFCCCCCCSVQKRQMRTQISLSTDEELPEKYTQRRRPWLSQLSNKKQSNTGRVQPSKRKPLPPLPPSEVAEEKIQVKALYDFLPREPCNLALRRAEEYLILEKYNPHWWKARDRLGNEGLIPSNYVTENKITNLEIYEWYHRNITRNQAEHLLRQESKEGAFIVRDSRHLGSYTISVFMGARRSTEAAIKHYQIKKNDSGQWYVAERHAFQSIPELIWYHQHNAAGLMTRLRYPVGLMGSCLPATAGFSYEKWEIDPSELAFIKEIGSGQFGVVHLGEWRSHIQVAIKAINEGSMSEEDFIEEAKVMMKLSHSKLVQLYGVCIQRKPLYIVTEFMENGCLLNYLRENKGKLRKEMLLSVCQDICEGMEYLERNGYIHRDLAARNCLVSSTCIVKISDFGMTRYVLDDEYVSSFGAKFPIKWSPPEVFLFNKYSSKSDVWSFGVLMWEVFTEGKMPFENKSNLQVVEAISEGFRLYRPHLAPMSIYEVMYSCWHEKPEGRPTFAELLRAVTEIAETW
Chain of CDK3 (Q00526 whole entry): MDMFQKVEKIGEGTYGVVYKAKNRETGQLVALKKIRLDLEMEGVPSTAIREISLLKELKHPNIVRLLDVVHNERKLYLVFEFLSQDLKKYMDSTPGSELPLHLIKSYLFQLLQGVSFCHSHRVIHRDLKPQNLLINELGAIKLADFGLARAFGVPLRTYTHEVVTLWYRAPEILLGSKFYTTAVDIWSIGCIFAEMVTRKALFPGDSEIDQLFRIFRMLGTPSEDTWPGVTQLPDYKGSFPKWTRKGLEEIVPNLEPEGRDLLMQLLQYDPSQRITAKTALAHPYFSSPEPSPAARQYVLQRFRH
Chain of CDKL5 (O76039 whole entry): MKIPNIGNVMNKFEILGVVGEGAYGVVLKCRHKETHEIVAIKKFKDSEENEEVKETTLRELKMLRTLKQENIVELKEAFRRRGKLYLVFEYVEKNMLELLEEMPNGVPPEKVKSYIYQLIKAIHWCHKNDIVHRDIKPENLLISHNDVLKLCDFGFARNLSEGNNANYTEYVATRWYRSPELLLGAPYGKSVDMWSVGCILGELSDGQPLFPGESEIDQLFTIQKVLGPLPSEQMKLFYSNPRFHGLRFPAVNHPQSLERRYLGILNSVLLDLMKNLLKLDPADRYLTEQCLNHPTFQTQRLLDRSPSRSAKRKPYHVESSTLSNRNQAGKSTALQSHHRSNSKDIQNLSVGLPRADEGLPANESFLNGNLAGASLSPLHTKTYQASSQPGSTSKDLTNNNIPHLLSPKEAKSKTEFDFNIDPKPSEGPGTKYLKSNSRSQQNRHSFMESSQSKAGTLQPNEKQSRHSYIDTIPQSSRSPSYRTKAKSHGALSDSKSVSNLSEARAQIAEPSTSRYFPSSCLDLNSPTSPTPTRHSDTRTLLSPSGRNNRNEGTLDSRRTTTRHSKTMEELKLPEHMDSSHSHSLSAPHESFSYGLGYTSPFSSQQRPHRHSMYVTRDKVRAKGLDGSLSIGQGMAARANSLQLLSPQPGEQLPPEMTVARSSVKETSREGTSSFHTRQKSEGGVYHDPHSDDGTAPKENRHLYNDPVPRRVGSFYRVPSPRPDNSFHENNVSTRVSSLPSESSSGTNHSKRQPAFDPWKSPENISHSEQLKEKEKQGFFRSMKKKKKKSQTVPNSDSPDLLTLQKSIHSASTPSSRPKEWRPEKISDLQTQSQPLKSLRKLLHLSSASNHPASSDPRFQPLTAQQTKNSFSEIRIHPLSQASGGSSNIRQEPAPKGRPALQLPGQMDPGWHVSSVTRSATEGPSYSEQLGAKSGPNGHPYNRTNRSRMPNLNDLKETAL
Chain of NEK9 (Q8TD19 whole entry): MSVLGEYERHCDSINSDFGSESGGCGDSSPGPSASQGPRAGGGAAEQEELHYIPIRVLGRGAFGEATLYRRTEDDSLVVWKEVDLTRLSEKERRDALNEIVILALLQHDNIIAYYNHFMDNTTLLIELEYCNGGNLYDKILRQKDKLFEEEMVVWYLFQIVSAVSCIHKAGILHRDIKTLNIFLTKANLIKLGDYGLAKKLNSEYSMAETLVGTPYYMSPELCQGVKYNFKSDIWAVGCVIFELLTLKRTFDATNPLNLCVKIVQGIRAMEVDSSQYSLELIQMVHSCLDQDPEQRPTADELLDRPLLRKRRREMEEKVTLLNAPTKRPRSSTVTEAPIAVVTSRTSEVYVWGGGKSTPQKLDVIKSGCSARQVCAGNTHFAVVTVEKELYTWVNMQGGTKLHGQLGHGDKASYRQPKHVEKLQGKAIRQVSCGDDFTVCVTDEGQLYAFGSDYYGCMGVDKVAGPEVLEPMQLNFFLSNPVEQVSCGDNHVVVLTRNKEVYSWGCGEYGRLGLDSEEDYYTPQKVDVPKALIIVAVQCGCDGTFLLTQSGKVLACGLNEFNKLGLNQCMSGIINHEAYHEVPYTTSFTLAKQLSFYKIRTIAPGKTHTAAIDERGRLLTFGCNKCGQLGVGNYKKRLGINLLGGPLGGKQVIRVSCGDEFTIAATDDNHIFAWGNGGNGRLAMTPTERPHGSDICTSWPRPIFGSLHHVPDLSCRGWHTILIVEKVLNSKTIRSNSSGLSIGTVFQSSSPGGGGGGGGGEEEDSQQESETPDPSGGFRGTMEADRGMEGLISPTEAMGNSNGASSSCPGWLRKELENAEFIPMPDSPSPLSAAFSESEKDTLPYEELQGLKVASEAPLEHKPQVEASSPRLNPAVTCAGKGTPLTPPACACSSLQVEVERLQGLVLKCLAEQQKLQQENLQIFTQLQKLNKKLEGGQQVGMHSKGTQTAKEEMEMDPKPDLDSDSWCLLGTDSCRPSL
Chain of NEK11 (Q8NG66 whole entry): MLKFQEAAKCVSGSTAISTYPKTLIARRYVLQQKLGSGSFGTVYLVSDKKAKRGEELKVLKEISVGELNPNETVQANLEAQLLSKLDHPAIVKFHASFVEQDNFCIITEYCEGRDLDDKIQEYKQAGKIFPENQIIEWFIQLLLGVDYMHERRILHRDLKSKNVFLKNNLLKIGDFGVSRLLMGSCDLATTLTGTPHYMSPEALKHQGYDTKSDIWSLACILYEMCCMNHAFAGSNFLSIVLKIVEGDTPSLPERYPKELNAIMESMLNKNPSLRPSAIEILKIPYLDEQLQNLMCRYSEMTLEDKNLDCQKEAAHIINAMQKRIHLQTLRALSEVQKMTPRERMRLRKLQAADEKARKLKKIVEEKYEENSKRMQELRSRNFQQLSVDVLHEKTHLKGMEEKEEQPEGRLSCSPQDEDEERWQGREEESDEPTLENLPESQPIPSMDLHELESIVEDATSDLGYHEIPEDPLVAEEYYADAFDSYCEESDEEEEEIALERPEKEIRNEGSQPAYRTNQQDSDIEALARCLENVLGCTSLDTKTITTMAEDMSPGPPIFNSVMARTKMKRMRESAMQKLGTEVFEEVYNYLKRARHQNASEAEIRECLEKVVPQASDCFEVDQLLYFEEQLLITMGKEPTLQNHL
Chain of FGFR3 (P22607 whole entry): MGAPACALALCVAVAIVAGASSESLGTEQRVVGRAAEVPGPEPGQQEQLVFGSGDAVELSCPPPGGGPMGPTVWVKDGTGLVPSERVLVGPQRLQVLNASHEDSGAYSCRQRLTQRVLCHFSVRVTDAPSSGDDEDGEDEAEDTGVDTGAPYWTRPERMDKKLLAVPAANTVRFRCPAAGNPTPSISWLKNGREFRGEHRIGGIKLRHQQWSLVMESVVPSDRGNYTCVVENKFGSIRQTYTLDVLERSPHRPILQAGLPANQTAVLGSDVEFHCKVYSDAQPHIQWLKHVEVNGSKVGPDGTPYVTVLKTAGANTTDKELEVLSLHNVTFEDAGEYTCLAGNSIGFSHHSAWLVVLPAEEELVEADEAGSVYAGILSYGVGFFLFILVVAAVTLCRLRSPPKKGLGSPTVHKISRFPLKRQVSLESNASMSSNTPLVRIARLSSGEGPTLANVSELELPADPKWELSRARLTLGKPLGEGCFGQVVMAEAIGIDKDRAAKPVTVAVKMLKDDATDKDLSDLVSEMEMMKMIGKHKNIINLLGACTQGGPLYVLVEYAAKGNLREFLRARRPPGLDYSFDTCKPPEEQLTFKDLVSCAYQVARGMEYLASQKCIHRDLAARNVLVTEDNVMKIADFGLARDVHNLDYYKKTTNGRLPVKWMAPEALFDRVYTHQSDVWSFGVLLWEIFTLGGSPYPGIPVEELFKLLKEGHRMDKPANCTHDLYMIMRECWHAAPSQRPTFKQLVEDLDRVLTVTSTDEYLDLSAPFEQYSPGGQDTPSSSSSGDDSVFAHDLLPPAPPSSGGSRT
Chain of MAPK11 (Q15759 whole entry): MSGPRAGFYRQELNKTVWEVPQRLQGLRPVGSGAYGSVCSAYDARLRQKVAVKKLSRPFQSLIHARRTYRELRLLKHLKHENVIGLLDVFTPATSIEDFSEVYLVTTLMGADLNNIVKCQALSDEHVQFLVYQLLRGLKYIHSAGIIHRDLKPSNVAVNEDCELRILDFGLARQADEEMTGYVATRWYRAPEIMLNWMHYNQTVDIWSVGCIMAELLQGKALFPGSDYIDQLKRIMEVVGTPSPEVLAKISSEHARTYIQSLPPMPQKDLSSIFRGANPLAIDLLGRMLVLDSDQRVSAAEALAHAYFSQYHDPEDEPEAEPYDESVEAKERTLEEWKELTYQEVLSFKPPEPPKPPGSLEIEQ
Chain of CSNK2A1 (P68400 whole entry): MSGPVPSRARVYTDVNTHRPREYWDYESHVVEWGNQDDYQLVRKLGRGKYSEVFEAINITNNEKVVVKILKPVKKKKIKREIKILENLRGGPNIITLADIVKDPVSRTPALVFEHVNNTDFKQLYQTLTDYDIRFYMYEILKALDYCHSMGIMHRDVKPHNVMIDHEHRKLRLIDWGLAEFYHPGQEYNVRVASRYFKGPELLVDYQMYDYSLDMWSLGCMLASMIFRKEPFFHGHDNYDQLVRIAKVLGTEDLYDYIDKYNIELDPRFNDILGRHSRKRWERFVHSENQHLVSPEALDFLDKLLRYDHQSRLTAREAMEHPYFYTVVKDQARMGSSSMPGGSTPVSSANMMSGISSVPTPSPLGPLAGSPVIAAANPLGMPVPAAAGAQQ

- inhibition at 1 µM [1]: -1%
- inhibition at 1 µM [2]: 3%
- inhibition at 1 µM [3]: 3%
- inhibition at 1 µM [4]: 2%
- inhibition at 1 µM [5]: 6%
- inhibition at 1 µM [6]: 4%
- inhibition at 1 µM [7]: 5%
- inhibition at 1 µM [8]: 14%
- inhibition at 1 µM [9]: -14%
- inhibition at 1 µM [10]: -4%
- inhibition at 1 µM [11]: 0%
- inhibition at 1 µM [12]: 6%
- inhibition at 1 µM [13]: 7%
- inhibition at 1 µM [15]: -1%
- inhibition at 1 µM [16]: -6%
- inhibition at 1 µM [17]: -6%
- inhibition at 1 µM [18]: 18%
Compound: C[C@@H](Oc1cc(-c2cnn(C3CCNCC3)c2)cnc1N)c1c(Cl)ccc(F)c1Cl [crizotinib]
- inhibition at 1 µM [14]: 1%
